Test results taken from paper PMC8956739, “A synthetic lipopeptide targeting top-priority multidrug-resistant Gram-negative pathogens” (Nature Communications, 2022).
≈ marks a conversion by molar mass, not a printed value. Where “and” joins values, the source holds several entries; their conditions need not be identical. Identical values can stand only once. Like-named read-outs stand apart in the source and are kept apart here. Residues, ends and D or L forms follow the SMILES beside them.

Tests used:
P. aeruginosa ATCC 27853 [1] = assay: Neutropenic mouse bloodstream infection model; type: in vivo; conditions: single IV dose 4 mg/kg; for Log10 CFU/mL blood at 4 h, Mean / Δlog10 CFU/mL blood (mean) / Log10 CFU/mL blood at 4 h, single mouse: 4 h; for Δlog10 CFU/mL blood (mean): treated minus control, mean of replicates; for Delta Log10 CFU/mL blood at 4 h, single mouse: treated mouse minus mean of vehicle mice
How it was run: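 Female Swiss mice made neutropenic with cyclophosphamide (150 mg/kg day −4, 100 mg/kg day −1), infected IV with 50 µL of 4 × 10^8 CFU/mL. Lipopeptide 4 mg/kg (free base) IV at 2 h post-inoculation, n = 3. Efficacy = Δlog10 CFU/mL blood versus saline at 4 h post-dose.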

[2] = system: K. pneumoniae FADDI-KP065; type: cell-based, Klebsiella pneumoniae
How it was run: (§1)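 MICs were determined by broth microdilution in cation-adjusted Mueller–Hinton broth (CaMHB), with clinical isolates tested alongside ATCC strains.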

[3] = system: K. pneumoniae FADDI-KP032; type: cell-based, Klebsiella pneumoniae
How it was run: as §1

A. baumannii ATCC 19606 = type: cell-based, Acinetobacter baumannii
How it was run: (§2)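 Read-out is the minimum inhibitory concentration, obtained by serially diluting compound in cation-adjusted Mueller–Hinton medium and exposing each isolate in microdilution format.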

A. baumannii FADDI-AB034 = type: cell-based, Acinetobacter baumannii
How it was run: as §1

A. baumannii FADDI-AB030 = type: cell-based, Acinetobacter baumannii
How it was run: as §1

[4] = Acute toxicity in mice (maximum tolerated dose, IV bolus); type: in vivo, mouse; conditions: mouse, in vivo, iv, single IV bolus dose, replicates 1-4; read-out: MTD, single replicate
Description: (§3) Lipopeptide solutions were prepared in 0.9% saline and stored at 4 °C before use. Swiss mice (female, 7-week-old, 22–28 g) were used in the study. A mouse was administered an intravenous bolus of the lipopeptide (mg/kg free base) through a lateral tail vein (≤0.1 mL). After the injection, the mouse was released back into the cage and monitored for clinical signs of toxicity from 0 to 24 h after injection as follows: every 10 min in the first 2 h, every half hour from 2 to 4 h, every hour from 4 to 12 h, and every 2 h from 12 to 24 h.

Swiss mice = assay: as above; type: in vivo, mouse; conditions: replicates 1-4
Description: as §3

Swiss mice, kidney = assay: Nephrotoxicity in mice (kidney histopathology); type: in vivo, mouse; conditions: for Kidney histopathology (SQS Score): 72 mg/kg/d subcutaneously in six divided doses every 2 h, n = 3; for Kidney histopathology, mice with the SQS score: mouse, in vivo
How it was run: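 Female Swiss mice (7-week-old, 22–28 g) received lipopeptides in saline either s.c. at 12 mg/kg ×6 every 2 h (total 72 mg/kg, n = 3) or i.p. at 20 or 25 mg/kg ×6 every 2 h (total 120 mg/kg, n = 6; 150 mg/kg, n = 3). Right kidney collected 20 h after last dose, fixed in 10% buffered formalin (pH 7.4), histology scored blinded.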

[5] = system: P. aeruginosa FADDI-PA025; type: cell-based, Pseudomonas aeruginosa
How it was run: as §1

[6] = system: P. aeruginosa FADDI-PA038; type: cell-based, Pseudomonas aeruginosa
How it was run: as §1

P. aeruginosa ATCC 27853 [7] = type: cell-based, Pseudomonas aeruginosa
How it was run: as §2

[8] = Distribution, accumulation and metabolism in mouse kidneys (ME-SALDI-MS imaging, histology); type: in vivo; conditions: 10 μmol/kg SC; for kidney histology, SQS scores: 6 doses Day 1 and 3 doses Day 2; for level at time molar: female, Swiss, mouse, in vivo, 10 umol/kg, 6 doses Day 1 and 3 doses Day 2, 2 h after last dose, read-out: Concentration in the kidney cortex region
Description: At 2 h after the last dose on Day 2, mice were rapidly euthanized. The left kidney was collected, flash-frozen in liquid nitrogen, and stored at -80 C for MS imaging analysis. The right kidney was fixed in 10% formalin for histological examination (Histopathology and Organ Pathology Unit at the University of Melbourne). The level of histological damage to the kidneys was graded as previously described. […] A total of 1 μL was spotted onto electrochemically etched, porous-silicon semiconductor substrates for desorption/ionization on silicon (DIOS)[39]. […] For lipopeptide distribution in mouse kidneys, serially sectioned 8-μm frozen slices of the kidney were loaded onto DIOS substrates and coated with a thin layer of α-CHCA using a matrix sprayer (TM-Sprayer, HTX) for MSI analysis. […] Mounted tissue was scanned for imaging alignment (Epson Perfection […]) and calibrated as previously described. Resulting polymyxin maps were visualized and normalized against the total ion current (TIC) of each section using IonView software (Shimadzu). Lipopeptide accumulation in mouse kidneys was determined by simultaneous […] analysis of kidney tissue from treated animals and serial dilutions of the drug deposited on control kidney tissue. […] The signal intensities were compared to the corresponding concentration standard curve to calculate the concentration of lipopeptide present. Putative metabolites in the kidneys treated with lipopeptides were identified by […]. Control kidney sections were used to differentiate lipopeptide metabolites from endogenous metabolites and MS/MS data from lipopeptide standards were used to differentiate lipopeptide metabolites from the parent ion generated via CID processed in the acquisition software (MALDI Solutions, Shimadzu). Levels of accumulated lipopeptide metabolites were determined by normalization to the parent ion in MSI data.

| Structure (SMILES) | Log10 CFU/mL blood at 4 h, Mean (P. aeruginosa ATCC 27853 [1]) [Log10 CFU/mL blood] | Log10 CFU/mL blood at 4 h, single mouse (P. aeruginosa ATCC 27853 [1]; 4 mg/kg) | Delta Log10 CFU/mL blood at 4 h, single mouse (P. aeruginosa ATCC 27853 [1]; 4 mg/kg) | MIC K. pneumoniae FADDI-KP065 ([2]; FADDI-KP065) [µg/mL] | MIC K. pneumoniae FADDI-KP032 ([3]; FADDI-KP032) [µg/mL] | MIC A. baumannii ATCC 19606 (A. baumannii ATCC 19606; ATCC 19606) [µg/mL] | MIC A. baumannii FADDI-AB034 (A. baumannii FADDI-AB034; FADDI-AB034) [µg/mL] | MIC A. baumannii FADDI-AB030 (A. baumannii FADDI-AB030; FADDI-AB030) [µg/mL] | MTD [4] [mg/kg] | MTD, single replicate (Swiss mice) | Kidney histopathology (SQS Score) (Swiss mice, kidney) | Kidney histopathology, mice with the SQS score (Swiss mice, kidney) | MIC P. aeruginosa FADDI-PA025 ([5]; FADDI-PA025) [µg/mL] | MIC P. aeruginosa FADDI-PA038 ([6]; FADDI-PA038) [µg/mL] | MIC P. aeruginosa ATCC 27853 (P. aeruginosa ATCC 27853 [7]; ATCC 27853) [µg/mL] | kidney histology, SQS scores [8] | level at time molar [8] [µM] | Δlog10 CFU/mL blood (mean) (P. aeruginosa ATCC 27853 [1]; 4 mg/kg) [log10 CFU/mL blood] | also measured |
| --- | --- | --- | --- | --- | --- | --- | --- | --- | --- | --- | --- | --- | --- | --- | --- | --- | --- | --- | --- |
| CCCCCC(=O)N[C@@H](CCN)C(=O)N[C@H](C(=O)N[C@@H](CN)C(=O)N[C@H]1CCNC(=O)[C@H]([C@@H](C)O)NC(=O)[C@H](CCN)NC(=O)[C@H](CCN)NC(=O)[C@H](CC)NC(=O)[C@@H](CC(C)C)NC(=O)[C@H](CCN)NC1=O)[C@@H](C)O [Lipopeptide F342] (HELM PEPTIDE1{[CCCCCC(=O)[*:2]].[Dab].T.[NC[C@H](N[*:1])C(=O)[*:2]].[Dab].[Dab].[dL].[Abu].[Dab].[Dab].T}$PEPTIDE1,PEPTIDE1,5:R3-11:R2$$$V2.0) | 7.44 | 7.29 Log10 CFU/mL blood and 7.60 Log10 CFU/mL blood | 0.0179 Log10 CFU/mL blood and 0.33 Log10 CFU/mL blood | 0.5 (≈ 0.461 µM) | 0.25 (≈ 0.23 µM) | 2 (≈ 1.84 µM) | 1 (≈ 0.921 µM) | 1 (≈ 0.921 µM) | 20 | 18.4 mg/kg | 0 (SQS 0 = no significant change (overall score, <1)) | 3/3 | 2 (≈ 1.84 µM) | 1 (≈ 0.921 µM) | 0.5 (≈ 0.461 µM) | – | – | – | Δlog10 CFU/mL blood (mean) (P. aeruginosa ATCC 27853 [1]): 0.17 log10 CFU/mL blood; MIC, No Survanta (P. aeruginosa ATCC 27853 [7]; ATCC 27853): 1 µg/mL (≈ 0.921 µM) |
| CC[C@H](C)CCCCC(=O)N[C@@H](CCN)C(=O)N[C@H](C(=O)N[C@@H](CCN)C(=O)N[C@H]1CCNC(=O)[C@H]([C@@H](C)O)NC(=O)[C@H](CCN)NC(=O)[C@H](CCN)NC(=O)[C@H](CC(C)C)NC(=O)[C@@H](CC(C)C)NC(=O)[C@H](CCN)NC1=O)[C@@H](C)O [colistin A] (HELM PEPTIDE1{[CC[C@H](C)CCCCC(=O)[*:2]].[Dab].T.[Dab].[Dab].[Dab].[dL].L.[Dab].[Dab].T}$PEPTIDE1,PEPTIDE1,5:R3-11:R2$$$V2.0) | – | – | – | – | – | – | – | – | – | – | – | – | – | – | – | +5 (SQS + 5 = severe damage (overall score, >60)) | 86.7 | – | – |
| CC[C@H](C)CCCCC(=O)N[C@@H](CCN)C(=O)N[C@H](C(=O)N[C@@H](CCN)C(=O)N[C@H]1CCNC(=O)[C@H]([C@@H](C)O)NC(=O)[C@H](CCN)NC(=O)[C@H](CCN)NC(=O)[C@H](CC(C)C)NC(=O)[C@@H](Cc2ccccc2)NC(=O)[C@H](CCN)NC1=O)[C@@H](C)O [polymyxin B1] (HELM PEPTIDE1{[CC[C@H](C)CCCCC(=O)[*:2]].[Dab].T.[Dab].[Dab].[Dab].[dF].L.[Dab].[Dab].T}$PEPTIDE1,PEPTIDE1,5:R3-11:R2$$$V2.0) | – | – | – | – | – | – | – | – | – | – | – | – | – | – | – | +5 (SQS + 5 = severe damage (overall score, >60)) | 38.2 | – | – |
| CC[C@@H]1NC(=O)[C@@H](CC(C)C)NC(=O)[C@H](CCN)NC(=O)[C@@H](NC(=O)[C@H](CN)NC(=O)[C@@H](NC(=O)[C@H](CCN)NC(=O)c2ccccc2)[C@@H](C)O)CCNC(=O)[C@H]([C@@H](C)O)NC(=O)[C@H](CCN)NC(=O)[C@H](CCN)NC1=O [Lipopeptide F379] (HELM PEPTIDE1{[O=C(c1ccccc1)[*:2]].[Dab].T.[NC[C@H](N[*:1])C(=O)[*:2]].[Dab].[Dab].[dL].[Abu].[Dab].[Dab].T}$PEPTIDE1,PEPTIDE1,5:R3-11:R2$$$V2.0) | 5.27 | 5.36 Log10 CFU/mL blood and 5.17 Log10 CFU/mL blood | -2.58 Log10 CFU/mL blood and -2.77 Log10 CFU/mL blood | – | – | – | – | – | 26 | 23 mg/kg and 21.3 mg/kg and 16 mg/kg | – | – | – | – | – | – | – | −2.67 | MIC K. pneumoniae FADDI-KP065 ([2]; carbapenem-resistant isolate): 2 µg/mL (≈ 1.83 µM); MIC K. pneumoniae FADDI-KP032 ([3]; carbapenem-resistant isolate): 2 µg/mL (≈ 1.83 µM); MIC A. baumannii ATCC 19606 (A. baumannii ATCC 19606): 8 µg/mL (≈ 7.33 µM); MIC A. baumannii FADDI-AB034 (A. baumannii FADDI-AB034; carbapenem-resistant isolate): 8 µg/mL (≈ 7.33 µM); MIC A. baumannii FADDI-AB030 (A. baumannii FADDI-AB030; carbapenem-resistant isolate): 2 µg/mL (≈ 1.83 µM); MIC P. aeruginosa FADDI-PA025 ([5]; MDR clinical isolate): >32 µg/mL; MIC P. aeruginosa FADDI-PA038 ([6]; carbapenem-resistant isolate): 4 µg/mL (≈ 3.67 µM); MIC P. aeruginosa ATCC 27853 (P. aeruginosa ATCC 27853 [7]): 1 µg/mL (≈ 0.916 µM) |
| CCCCCCCC(=O)N[C@@H](CCN)C(=O)N[C@H](C(=O)N[C@@H](CCN)C(=O)N[C@H]1CCNC(=O)[C@H]([C@@H](C)O)NC(=O)[C@H](CCN)NC(=O)[C@H](CCN)NC(=O)[C@H]([C@@H](C)O)NC(=O)[C@@H](CC(C)C)NC(=O)[C@H](CCN)NC1=O)[C@@H](C)O [Lipopeptide F100] (HELM PEPTIDE1{[CCCCCCCC(=O)[*:2]].[Dab].T.[Dab].[Dab].[Dab].[dL].T.[Dab].[Dab].T}$PEPTIDE1,PEPTIDE1,5:R3-11:R2$$$V2.0) | 4.44 | 4.50 Log10 CFU/mL blood and 4.28 Log10 CFU/mL blood and 4.53 Log10 CFU/mL blood | -2.95 Log10 CFU/mL blood and -3.17 Log10 CFU/mL blood and -2.91 Log10 CFU/mL blood | <0.125 | 0.25 (≈ 0.219 µM) | 4 (≈ 3.5 µM) | 2 (≈ 1.75 µM) | 1 (≈ 0.875 µM) | – | – | 0 (SQS 0 = no significant change (overall score, <1)) | 3/3 | >32 | 0.5 (≈ 0.437 µM) | 0.5 (≈ 0.437 µM) | – | – | −3.01 | – |
